In series [1] the test system is male Slc:ddY mice. The experiment in a line: Test of anti-fatigue effect and physical endurance-enhancing effect (forced swimming with weight). In kind it is in vivo, mouse. As to conditions: weight 8.5% of body weight. From the text:
The following method can determine whether the functional food, or anti-fatigue agent and/or physical endurance enhancer, which contains the composition of the present invention, has an anti-fatigue effect or not and physical endurance-enhancing effect or not. That is, the effect of the present invention can be determined as follows: after preliminarily feeding, attaching a weight, which is equivalent to 8.5% of the body weight of each mouse, to each mouse in a group subjected to forced oral administration with an anti-fatigue agent containing the composition of the present invention (administered group) and to each mouse in a group administered with no agent (non-administration group) three weeks after administration; forcing the mice to swim; measuring a time until the head (nose) of each mouse completely sinks in water for 7 seconds due to distress; and comparing the results between the administered group and the non-administration group.
Six-week-old male Slc:ddY mice (Charles river laboratories Japan, Inc.) were preliminarily fed for 7 days and divided into four groups each including 10 mice.
The groups include: the group administered with water (control); the group administered with oxidized coenzyme Q10 at 50 mg/kg/day (Comparative Example 1, group administered with only CoQ10); the group administered with phosphatidylinositol at 100 mg/kg/day (Comparative Example 2, group administered with only phosphatidylinositol); and the group administered with oxidized coenzyme Q10 at 50 mg/kg/day and phosphatidylinositol at 100 mg/kg/day at the same time (Test Example, group administered with CoQ10+phosphatidylinositol), and forced oral administration was performed under the above-mentioned administration conditions five days a week. Three weeks after the administration, a weight was attached to each mouse (the weight is 8.5% of the body weight of the mouse), and the mouse was forced to swim. Then, a time until the head (nose) of the mouse completely sank for 7 seconds due to distress was measured. Note that, the oxidized coenzyme Q10 and phosphatidylinositol in Test Example were simultaneously administered.

The nature of series [2]: Coenzyme Q10 concentration in blood after forced oral administration (HPLC of plasma). In kind it is in vivo, rat. The note with it: rats; for Average value of total CoQ10 concentration in blood: group = 1 week pre-administration. Here is the method: Seven-week-old male Slc:SD rats were preliminarily fed for 7 days, and forced oral administration (repeated oral administration) was performed for 4 rats with phosphatidylinositol at 100 mg/kg/day for 1 week. Then, forced oral administration was performed with phosphatidylinositol at 100 mg/kg/day and oxidized coenzyme Q10 at 100 mg/kg/day at the same time (PI-administered group). 0, 2, 4, and 6 hours after the forced oral administration with both phosphatidylinositol and coenzyme Q10, the whole blood was collected from the postcaval vein using heparinized injection needles and syringes under diethyl ether anesthesia. Collected blood was immediately centrifuged (4° C., 3,000 rpm, 10 minutes) to separate plasma. The separated plasma samples were used for an analysis of coenzyme Q10 by HPLC. As comparative examples, the above-mentioned procedures were performed for the group which was subjected to forced oral administration (repeated oral administration) with soybean lecithin at 500 mg/kg/day (100 mg/kg/day in terms of phosphatidylinositol) instead of phosphatidylinositol for 1 week and then to forced oral administration with both phosphatidylinositol at 100 mg/kg/day and oxidized coenzyme Q10 at 100 mg/kg/day at the same time (soybean lecithin-administered group), and the group which was subjected to forced oral administration with both phosphatidylinositol at 100 mg/kg/day and oxidized coenzyme Q10 at 100 mg/kg/day simultaneously without preliminary administration of phosphatidylinositol (PI non-administration group).

Setting [3] is: Week 3, forced oral administration five days a week.

Regarding `COC1=C(OC)C(=O)C(C/C=C(\C)CC/C=C(\C)CC/C=C(\C)CC/C=C(\C)CC/C=C(\C)CC/C=C(\C)CC/C=C(\C)CC/C=C(\C)CC/C=C(\C)CCC=C(C)C)=C(C)C1=O` [CoQ10, oxidized coenzyme Q10, reference compound], the “Swimming time (average)” value stood at 214 s in series [1] (Week 0, 10 mice per group) and 358 s in series [1] (setting [3]).
For the compound phosphatidylinositol, the “Swimming time (average)” value in series [1] (Week 0, 10 mice per group) was determined as 212 s; in series [1] (setting [3]) it was 333 s. The “Average value of total CoQ10 concentration in blood” value in series [2] (0 hr after oral PI 100 mg/kg + oxidized CoQ10 100 mg/kg) is 70 nM; in series [2] (2 hr after oral PI 100 mg/kg + oxidized CoQ10 100 mg/kg), 1,983 nM; in series [2] (4 hr after oral PI 100 mg/kg + oxidized CoQ10 100 mg/kg), 1,927 nM; in series [2] (6 hr after oral PI 100 mg/kg + oxidized CoQ10 100 mg/kg), 686 nM. Moreover, the “coenzyme Q10 concentrations in blood compared with the PI non-administration group” value in series [2] (1 week pre-administration) is on record as “higher”.

Source of the values: patent US20100061969A1, “DIETARY SUPPLEMENT, ANTI-FATIGUE AGENT OR PHYSICAL ENDURANCE ENHANCER, FUNCTIONAL FOOD, OR COSMETIC” (ASAHI KASEI PHARMA CORPORATION, priority 2006, published 2010).
